IC50 or EC50 (potency, activation or inhibition) data for 29 compounds are collected here from patent publication US9000022B2 (Exelixis Patent Company LLC, priority 2005, dated 2015).

Some results are limits rather than exact numbers.

In the assay the test system is LXRα and/or LXRβ. Description: Co-transfection assay (LXRE luciferase reporter, CV-1 cells). It is filed as cell-based, human. The settings on record: tested as described in Example 33; IC50 or EC50 for LXRα and/or LXRβ, isoform not specified; read-out: activity (IC50 or EC50 for LXR). A digest of the protocol: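 CV-1 cells transiently co-transfected with full-length human LXRα or LXRβ plus RXRα, an LXRE×1-Tk-luciferase reporter and a β-galactosidase control. Compounds incubated 20 h at 37 °C (≤1% DMSO; screen at 10 μM final); luciferase read after lysis. EC50/IC50 from 8-point half-log curves (4 wells per point, ≥3 experiments); efficacy relative to a reference agonist high control and DMSO.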
A general note: Reporter assays use an easily measured gene product as a stand-in for the process of interest.

Consider `CC(C)(O)c1cn(-c2ccc(-c3ccc(C(C)(C)O)c(S(C)(=O)=O)c3)cc2)c(-c2cccc(Cl)c2Cl)n1` [Example 105, 2-(2-(2,3-dichlorophenyl)-1-(4′-(2-hydroxypropan-2-yl)-3′-(methylsulfonyl)biphenyl-4-yl)-1H-imidazol-4-yl)propan-2-ol], for which the IC50 or EC50 (potency, activation or inhibition) was less than 1000 nM.

`Cc1cc(-c2ccc(-n3cc(C(C)(C)O)nc3-c3c(Cl)cccc3Cl)cc2)cc(S(C)(=O)=O)c1` [Example 106, 2-(2-(2,6-dichlorophenyl)-1-(′3-methyl-5′-(methyl-sulfonyl)biphenyl-4-yl)-1H-imidazol-4-yl)propan-2-ol]: the IC50 or EC50 (potency, activation or inhibition) is 1000 to 10000 nM.

On to `CC(C)(O)c1cn(-c2ccc(-c3cc(S(C)(=O)=O)ccc3Cl)cc2)c(-c2c(Cl)cccc2Cl)n1` [Example 107, 2-(1-(2′-chloro-5′-(methyl-sulfonyl)biphenyl-4-yl)-2-(2,6-dichlorophenyl)-1H-imidazol-4-yl)propan-2-ol], for which the IC50 or EC50 (potency, activation or inhibition) is less than 1000 nM.

`CNS(=O)(=O)c1cccc(-c2ccc(-n3cc(C(C)(C)O)nc3-c3c(Cl)cccc3Cl)cc2)c1` [Example 108, 4′-(2-(2,6-dichlorophenyl)-4-(2-hydroxypropan-2-yl)-1H-imidazol-1-yl)-N-methylbiphenyl-3-sulfonamide]: the IC50 or EC50 (potency, activation or inhibition) is less than 1000 nM.

With `CC(C)(O)c1cn(-c2ccc(-c3cccc(S(C)(=O)=O)c3)cc2F)c(-c2ccccc2C(F)(F)F)n1` [Example 109, 2-(1-(3-fluoro-3′-(methyl-sulfonyl)biphenyl-4-yl)-2-(2-(trifluoromethyl)phenyl)-1H-imidazol-4-yl)propan-2-ol], the IC50 or EC50 (potency, activation or inhibition) is less than 1000 nM.

Take `CCS(=O)(=O)c1cccc(-c2ccc(-n3cc(C(C)(C)O)nc3-c3ccccc3C(F)(F)F)c(F)c2)c1` [Example 110, 2-(1-(3′-(ethylsulfonyl)-3-fluoro-biphenyl-4-yl)-2-(2-(trifluoromethyl)phenyl)-1H-imidazol-4-yl)propan-2-ol]: the IC50 or EC50 (potency, activation or inhibition) was less than 1000 nM.

Regarding `CC(C)(O)c1cn(-c2ccc(-c3cccc(S(C)(=O)=O)c3)c(F)c2)c(-c2ccccc2C(F)(F)F)n1` [Example 111, 2-(1-(2-fluoro-3′-(methyl-sulfonyl)biphenyl-4-yl)-2-(2-(trifluoromethyl)phenyl)-1H-imidazol-4-yl)propan-2-ol], the IC50 or EC50 (potency, activation or inhibition) was less than 1000 nM.

As for `CCS(=O)(=O)c1cccc(-c2ccc(-n3cc(C(C)(C)O)nc3-c3ccccc3C(F)(F)F)cc2F)c1` [Example 112, 2-(1-(3′-(ethylsulfonyl)-2-fluoro-biphenyl-4-yl)-2-(2-(trifluoro-methyl)phenyl)-1H-imidazol-4-yl)propan-2-ol], the IC50 or EC50 (potency, activation or inhibition) is less than 1000 nM.

`CC(C)(O)c1cn(-c2ccc(-c3cccc(S(C)(=O)=O)c3)cc2F)c(-c2cccc(Cl)c2Cl)n1` [Example 113, 2-(2-(2,3-dichlorophenyl)-1-(3-fluoro-3′-(methylsulfonyl)biphenyl-4-yl)-1H-imidazol-4-yl)propan-2-ol]: the IC50 or EC50 (potency, activation or inhibition) is less than 1000 nM.

With `CCS(=O)(=O)c1cccc(-c2ccc(-n3cc(C(C)(C)O)nc3-c3cccc(Cl)c3Cl)c(F)c2)c1` [Example 114, 2-(2-(2,3-dichlorophenyl)-1-(3′-(ethylsulfonyl)-3-fluorobiphenyl-4-yl)-1H-imidazol-4-yl)propan-2-ol], the IC50 or EC50 (potency, activation or inhibition) is less than 1000 nM.

With `CC(C)(O)c1cn(-c2ccc(-c3cccc(S(C)(=O)=O)c3)cc2F)c(-c2c(Cl)cccc2Cl)n1` [Example 115, 2-(2-(2,6-dichlorophenyl)-1-(3-fluoro-3′-(methylsulfonyl)biphenyl-4-yl)-1H-imidazol-4-yl)propan-2-ol], the IC50 or EC50 (potency, activation or inhibition) is less than 1000 nM.

As for `CCS(=O)(=O)c1cccc(-c2ccc(-n3cc(C(C)(C)O)nc3-c3c(Cl)cccc3Cl)c(F)c2)c1` [Example 116, 2-(2-(2,6-dichlorophenyl)-1-(3′-(ethylsulfonyl)-3-fluorobiphenyl-4-yl)-1H-imidazol-4-yl)propan-2-ol], the IC50 or EC50 (potency, activation or inhibition) is less than 1000 nM.

Take `CC(C)(O)c1cn(-c2ccc(-c3ccc(CO)c(S(C)(=O)=O)c3)cc2F)c(-c2cccc(Cl)c2Cl)n1` [Example 117, 2-(2-(2,3-dichlorophenyl)-1-(3-fluoro-4′-(hydroxymethyl)-3′-(methyl-sulfonyl)biphenyl-4-yl)-1H-imidazol-4-yl)propan-2-ol]: the IC50 or EC50 (potency, activation or inhibition) is less than 1000 nM.

`Cc1c(Cl)cccc1-c1nc(C(C)(C)O)cn1-c1ccc(-c2cccc(S(C)(=O)=O)c2)cc1F` [Example 118, 2-(2-(3-chloro-2-methylphenyl)-1-(3-fluoro-3′-(methylsulfonyl)biphenyl-4-yl)-1H-imidazol-4-yl)propan-2-ol]: the IC50 or EC50 (potency, activation or inhibition) is less than 1000 nM.

Turning to `CCS(=O)(=O)c1cccc(-c2ccc(-n3cc(C(C)(C)O)nc3-c3cccc(Cl)c3C)c(F)c2)c1` [Example 119, 2-(2-(3-chloro-2-methylphenyl)-1-(3′-(ethylsulfonyl)-3-fluorobiphenyl-4-yl)-1H-imidazol-4-yl)propan-2-ol], the IC50 or EC50 (potency, activation or inhibition) is less than 1000 nM.

Turning to `Cc1c(Cl)cccc1-c1nc(C(C)(C)O)cn1-c1ccc(-c2ccc(CO)c(S(C)(=O)=O)c2)cc1F` [Example 120, 2-(2-(3-chloro-2-methylphenyl)-1-(3-fluoro-4′-(hydroxymethyl)-3′-(methylsulfonyl)biphenyl-4-yl)-1H-imidazol-4-yl)propan-2-ol], the IC50 or EC50 (potency, activation or inhibition) was less than 1000 nM.

Regarding `CC(C)(O)c1cn(-c2ccc(-c3ccc(CO)c(S(C)(=O)=O)c3)cc2F)c(-c2ccccc2C(F)(F)F)n1` [Example 121], the IC50 or EC50 (potency, activation or inhibition) was less than 1000 nM.

Turning to `CC(C)(O)c1cn(-c2ccc(-c3ccc(CO)c(S(C)(=O)=O)c3)cc2F)c(-c2c(Cl)cccc2Cl)n1` [Example 122, 2-(2-(2,6-dichlorophenyl)-1-(3-fluoro-4′-(hydroxymethyl)-3′-(methylsulfonyl)biphenyl-4-yl)-1H-imidazol-4-yl)propan-2-ol], the IC50 or EC50 (potency, activation or inhibition) is less than 1000 nM.

Turning to `CC(C)(O)c1cn(-c2ccc(-c3cccc(S(C)(=O)=O)c3)cc2F)c(-c2cccc(F)c2Cl)n1` [Example 123, 2-(2-(2-chloro-3-fluorophenyl)-1-(3-fluoro-3′-(methylsulfonyl)biphenyl-4-yl)-1H-imidazol-4-yl)propan-2-ol], the IC50 or EC50 (potency, activation or inhibition) is less than 1000 nM.

On to `CCS(=O)(=O)c1cccc(-c2ccc(-n3cc(C(C)(C)O)nc3-c3cccc(F)c3Cl)c(F)c2)c1` [Example 124, 2-(2-(2-chloro-3-fluorophenyl)-1-(3′-(ethylsulfonyl)-3-fluorobiphenyl-4-yl)-1H-imidazol-4-yl)propan-2-ol], for which the IC50 or EC50 (potency, activation or inhibition) was less than 1000 nM.

On to `CC(C)(O)c1cn(-c2ccc(-c3ccc(CO)c(S(C)(=O)=O)c3)cc2F)c(-c2cccc(F)c2Cl)n1` [Example 125, 2-(2-(2-chloro-3-fluorophenyl)-1-(3-fluoro-4′-(hydroxymethyl)-3′-(methylsulfonyl)biphenyl-4-yl)-1H-imidazol-4-yl)propan-2-ol], for which the IC50 or EC50 (potency, activation or inhibition) was less than 1000 nM.

On to `CCS(=O)(=O)c1cccc(-c2ccc(-n3cc(C(C)(C)O)nc3-c3c(F)cccc3Cl)c(F)c2)c1` [Example 126, 2-(2-(2-chloro-6-fluorophenyl)-1-(3′-(ethylsulfonyl)-3-fluorobiphenyl-4-yl)-1H-imidazol-4-yl)propan-2-ol], for which the IC50 or EC50 (potency, activation or inhibition) is less than 1000 nM.

Consider `CC(C)(O)c1cn(-c2ccc(-c3ccc(CO)c(S(C)(=O)=O)c3)cc2F)c(-c2c(F)cccc2Cl)n1` [Example 127, 2-(2-(2-chloro-6-fluorophenyl)-1-(3-fluoro-4′-(hydroxymethyl)-3′-(methylsulfonyl)biphenyl-4-yl)-1H-imidazol-4-yl)propan-2-ol], for which the IC50 or EC50 (potency, activation or inhibition) lay in the range of 1000 to 10000 nM.

As to `Cc1cccc(Cl)c1-c1nc(C(C)(C)O)cn1-c1ccc(-c2cccc(S(C)(=O)=O)c2)cc1F` [Example 128, 2-(2-(2-chloro-6-methylphenyl)-1-(3-fluoro-3′-(methylsulfonyl)biphenyl-4-yl)-1H-imidazol-4-yl)propan-2-ol], the IC50 or EC50 (potency, activation or inhibition) is less than 1000 nM.

Regarding `CCS(=O)(=O)c1cccc(-c2ccc(-n3cc(C(C)(C)O)nc3-c3c(C)cccc3Cl)c(F)c2)c1` [Example 129], the IC50 or EC50 (potency, activation or inhibition) is less than 1000 nM.

As for `CC(C)(O)c1cn(-c2ccc(-c3cccc(S(C)(=O)=O)c3)cc2F)c(-c2c(F)cccc2F)n1` [Example 130, 2-(2-(2,6-difluorophenyl)-1-(3-fluoro-3′-(methylsulfonyl)biphenyl-4-yl)-1H-imidazol-4-yl)propan-2-ol], the IC50 or EC50 (potency, activation or inhibition) fell in the range of 1000 to 10000 nM.

For the compound `CCS(=O)(=O)c1cccc(-c2ccc(-n3cc(C(C)(C)O)nc3-c3c(F)cccc3F)c(F)c2)c1` [Example 131, 2-(2-(2,6-difluorophenyl)-1-(3′-(ethylsulfonyl)-3-fluorobiphenyl-4-yl)-1H-imidazol-4-yl)propan-2-ol], the IC50 or EC50 (potency, activation or inhibition) lay in the range of 1000 to 10000 nM.

Consider `Cc1cccc(Cl)c1-c1nc(C(C)(C)O)cn1-c1ccc(-c2ccc(CO)c(S(C)(=O)=O)c2)cc1F` [Example 133, 2-(2-(2-chloro-6-methylphenyl)-1-(3-fluoro-4′-(hydroxymethyl)-3′-(methylsulfonyl)biphenyl-4-yl)-1H-imidazol-4-yl)propan-2-ol], for which the IC50 or EC50 (potency, activation or inhibition) was less than 1000 nM.

`CC(C)(O)c1cn(-c2ccc(-c3cccc(S(C)(=O)=O)c3)cc2F)c(-c2c(F)cccc2Cl)n1` [Example 134, 2-(2-(2-chloro-6-fluorophenyl)-1-(3-fluoro-3′-(methylsulfonyl)biphenyl-4-yl)-1H-imidazol-4-yl)propan-2-ol]: the IC50 or EC50 (potency, activation or inhibition) is less than 1000 nM.
